Assay results as given in patent publication US20260234140A1, “PYRIDOPYRIMIDINE DERIVATIVE AND USE THEREOF” (SUNSHINE LAKE PHARMA CO., LTD., priority 2023, published 2026).

Tested on: PD1/PD-L1 pathway
Experiment: PD1/PD-L1 Blockade Bioassay, inhibition of the PD1/PD-L1 pathway at the cellular level (luciferase reporter, PD-1 Jukat T cells co-cultured with PD-L1 aAPC/CHO-K1 cells)
Assay type: cell-based
Settings: T-cell; for EC50: PD-1 Jukat T cells + PD-L1 aAPC/CHO-K1 cells, 6 h co-culture, ONE-Glo luciferase readout; for Emax: maximum % Activity relative to atezolizumab (set to 100%)
Method: Experiment 1: Detecting the Inhibitory Activity of Compounds on the PD1/PD-L1 Pathway at the Cellular Level Using the PD1/PD-L1 Blockade Bioassay Method
PD-1 Jukat T cells were revived and cultured with 1640 medium containing 100 μg/mL Hygromycin B, […] Puromycin, 10% FBS and 1% dual antibody; PD-L1 aAPC/CHO-K1 cells were revived and cultured with F12K medium containing 100 μg/mL Hygromycin B, 200 μg/mL G418, 10% FBS and 1% dual antibody.
The revived cells need to be passaged 2-3 times. When the cells enter the exponential growth phase with good growth status, the PD-L1 aAPC/CHO-K1 was digested with trypsin, and the cells were resuspended in F12K containing 5% FBS and adjusted to a density of 5×10^5 cells/mL. 20 μl/well were plated in a 384-well plate (10,000 cells/well) and incubated in an incubator overnight for 16-20 h.
a Preparation of compound stock solution: Dissolve the compound to be tested in DMSO to prepare a 20 mM stock solution.
b Compound gradient dilution: dilute the compound in 1640 medium containing 5% FBS without antibiotics or phenol red, and make 3-fold gradient dilutions to prepare 10 concentration gradients (2×).
c Adding drugs: Take out the cell culture plate, discard the supernatant, add 20 μl/well of the prepared compound, and incubate in the incubator for 1.5 h.
PD-1 Jukat T cells were collected, washed once with PBS, and resuspended in 1640 medium containing 5% FBS without antibiotics or phenol red. The density was adjusted to 1×10^6 cells/mL. 20 μl PD-1 Jukat T cells (20,000 cells/well) were added to each well and incubated in the incubator for 6 h.
ONE-Glo™ Luciferase Assay reagent was thawed to room temperature in advance and then added to a 384-well plate at 40 µl/well. Incubate in the dark for 15 minutes and read the […] signal on a plate reader.
[formula] • Among them, % Activity: % Activity • RLU: Resulting Luminescence unit • RLUvehicle: Average RLU value of negative control wells on each plate • RLUpositive: Average RLU value of positive control wells on each plate • Vehicle control: DMSO (0.1%) corresponding to the test value was used as negative control (its % Activity was 0%); • Positive control: The highest detection value at the atezolizumab administration concentration was used as the positive control (its % Activity was 100%). • (2) EC50 value calculation method: The EC50 value was obtained by the nonlinear fitting formula of Graph Pad Prism 8.0 software. The calculation formula is as follows:
Y=Bottom+(Top−Bottom)/(1+10^((Log EC50−X)×HillSlope)) • X: log of activator concentration (logarithm of compound concentration); Y: % Activity • (3) Emax definition: The maximum % Activity value corresponding to the maximum activation value of the compound relative to atezolizumab (the activation value is set to 100%).

Row | SMILES | EC50 | Emax
1 | COc1nc(-c2cccc(-c3cccc(Nc4nc(C(F)F)nc5cc(CN6CC[C@@H](O)C6)cnc45)c3C)c2Cl)ccc1CNC12CCC(C(=O)O)(CC1)C2 [Example 9, (R)-4-(((6-(2-chloro-3′-((2-(difluoromethyl)-7-((3-hydroxypyrrolidin-1-yl)methyl)pyrido[3,2-d]pyrimidin-4-yl)amino)-2′-methyl-[1,1′-biphenyl]-3-yl)-2-methoxypyridin-3-yl)methyl)amino)bicyclo[2.2.1]heptane-1-carboxylic acid] | 0.0907 µM | 117%
2 | COc1nc(-c2cccc(-c3cccc(Nc4nc(C(F)F)nc5cc(CN6CC(C)(O)C6)cnc45)c3C)c2Cl)cnc1CN(C)[C@H]1CC[C@H](C(=O)O)CC1 [Example 19, (1r,4r)-4-(((5-(2-chloro-3′-((2-(difluoromethyl)-7-((3-hydroxy-3-methylazetidin-1-yl)methyl)pyrido[3,2-d]pyrimidin-4-yl)amino)-2′-methyl-[1,1′-biphenyl]-3-yl)-3-methoxypyrazin-2-yl)methyl)(methyl)amino)cyclohexane-1-carboxylic acid] | 0.0432 µM | 80%
3 | COc1nc(-c2cccc(-c3cccc(Nc4nc(C(F)F)nc5cc(CN6CC[C@H](CO)C6)cnc45)c3C)c2Cl)cnc1CN(C)[C@H]1CC[C@H](C(=O)O)CC1 [Example 28, (1r,4r)-4-(((5-(2-chloro-3′-((2-(difluoromethyl)-7-(((S)-3-(hydroxymethyl)pyrrolidin-1-yl)methyl)pyrido[3,2-d]pyrimidin-4-yl)amino)-2′-methyl-[1,1′-biphenyl]-3-yl)-3-methoxypyrazin-2-yl)methyl)(methyl)amino)cyclohexane-1-carboxylic acid] | 0.0495 µM | 95%
4 | COc1nc(-c2cccc(-c3cccc(Nc4nc(C(F)F)nc5cc(CN6CC[C@H](O)C6)cnc45)c3C)c2Cl)cnc1CN1CC[C@H](O)C1 [Example 50, (S)-1-((5-(2-chloro-3′-((2-(difluoromethyl)-7-(((S)-3-hydroxypyrrolidin-1-yl)methyl)pyrido[3,2-d]pyrimidin-4-yl)amino)-2′-methyl-[1,1′-biphenyl]-3-yl)-3-methoxypyrazin-2-yl)methyl)pyrrolidin-3-ol] | 0.0991 µM | 96%
5 | COc1nc(-c2cccc(-c3cccc(Nc4nc(C(F)F)nc5cc(CN6CC[C@](C)(O)C6)cnc45)c3C)c2Cl)cnc1CN(C)[C@H]1CC[C@H](C(=O)O)CC1 [Example 46, (1r,4r)-4-(((5-(2-chloro-3′-((2-(difluoromethyl)-7-(((S)-3-hydroxy-3-methylpyrrolidin-1-yl)methyl)pyrido[3,2-d]pyrimidin-4-yl)amino)-2′-methyl-[1,1′-biphenyl]-3-yl)-3-methoxypyrazin-2-yl)methyl)(methyl)amino)cyclohexane-1-carboxylic acid] | 0.0607 µM | 86.7%
6 | COc1nc(-c2cccc(-c3cccc(Nc4nc(C(F)F)nc5cc(CN6CC[C@@H](O)C6)cnc45)c3C)c2Cl)cnc1CN1CCC(C(=O)O)CC1 [Example 15, (R)-1-((5-(2-chloro-3′-((2-(difluoromethyl)-7-((3-hydroxypyrrolidin-1-yl)methyl)pyrido[3,2-d]pyrimidin-4-yl)amino)-2′-methyl-[1,1′-biphenyl]-3-yl)-3-methoxypyrazin-2-yl)methyl)piperidine-4-carboxylic acid] | 0.0418 µM | 97%
7 | COc1nc(-c2cccc(-c3cccc(Nc4nc(C(F)F)nc5cc(CN6CCCC6)cnc45)c3C)c2Cl)cnc1CN(C)[C@H]1CC[C@H](C(=O)O)CC1 [Example 20, (1r,4r)-4-(((5-(2-chloro-3′-((2-(difluoromethyl)-7-(pyrrolidin-1-ylmethyl)pyrido[3,2-d]pyrimidin-4-yl)amino)-2′-methyl-[1,1′-biphenyl]-3-yl)-3-methoxypyrazin-2-yl)methyl)(methyl)amino)cyclohexane-1-carboxylic acid] | 0.0635 µM | 108%
8 | COc1nc(-c2cccc(-c3cccc(Nc4nc(C(F)F)nc5cc(CN6CCC[C@H]6C)cnc45)c3C)c2Cl)cnc1CN(C)[C@H]1CC[C@H](C(=O)O)CC1 [Example 41] | 0.0906 µM | 79%
9 | COc1nc(-c2cccc(-c3cccc(Nc4nc(C(F)F)nc5cc(CN6CC[C@H](O)C6)cnc45)c3C)c2Cl)cnc1CN[C@@H]1CCOC[C@@H]1O [Example 51, (S)-1-((4-((2′-chloro-3′-(5-((((3R,4R)-3-hydroxytetrahydro-2H-pyran-4-yl)amino)methyl)-6-methoxypyrazin-2-yl)-2-methyl-[1,1′-biphenyl]-3-yl)amino)-2-(difluoromethyl)pyrido[3,2-d]pyrimidin-7-yl)methyl)pyrrolidin-3-ol] | 0.0991 µM | 96%
10 | [2H]C([2H])([2H])N(Cc1ncc(-c2cccc(-c3cccc(Nc4nc(C(F)F)nc5cc(CN6CC[C@@H](O)C6)cnc45)c3C)c2Cl)nc1OC)[C@H]1CC[C@H](C(=O)O)CC1 [Example 32, (1r,4r)-4-(((5-(2-chloro-3′-((2-(difluoromethyl)-7-(((R)-3-hydroxypyrrolidin-1-yl)methyl)pyrido[3,2-d]pyrimidin-4-yl)amino)-2′-methyl-[1,1′-biphenyl]-3-yl)-3-methoxypyrazin-2-yl)methyl)(methyl-d3)amino)cyclohexane-1-carboxylic acid] | 0.0763 µM | 84.1%

Now from value to compound, other results behind:

Row | EC50 | SMILES | Emax
11 | 0.0711 µM | COc1nc(-c2cccc(-c3cccc(Nc4nc(C(F)F)nc5cc(CN6CC(OC)C6)cnc45)c3C)c2Cl)cnc1CN(C)[C@H]1CC[C@H](C(=O)O)CC1 [Example 18, (1r,4r)-4-(((5-(2-chloro-3′-((2-(difluoromethyl)-7-((3-methoxyazetidin-1-yl)methyl)pyrido[3,2-d]pyrimidin-4-yl)amino)-2′-methyl-[1,1′-biphenyl]-3-yl)-3-methoxypyrazin-2-yl)methyl)(methyl)amino)cyclohexane-1-carboxylic acid] | 68%
12 | 0.0382 µM | [2H]C([2H])([2H])N(Cc1ccc(-c2cccc(-c3cccc(Nc4nc(C(F)F)nc5cc(CN6CC[C@@H](O)C6)cnc45)c3C)c2Cl)nc1OC)[C@H]1CC[C@H](C(=O)O)CC1 [Example 13, (1r,4r)-4-(((6-(2-chloro-3′-((2-(difluoromethyl)-7-(((R)-3-hydroxypyrrolidin-1-yl)methyl)pyrido[3,2-d]pyrimidin-4-yl)amino)-2′-methyl-[1,1′-biphenyl]-3-yl)-2-methoxypyridin-3-yl)methyl)(methyl-d3)amino)cyclohexane-1-carboxylic acid] | 104%
13 | 0.0586 µM | COc1nc(-c2cccc(-c3cccc(Nc4nc(C(F)F)nc5cc(CN6CC[C@@H](O)C6)cnc45)c3C)c2Cl)cnc1CN[C@H]1CC[C@H](C(=O)O)CC1 [Example 33, (1r,4r)-4-(((5-(2-chloro-3′-((2-(difluoromethyl)-7-(((R)-3-hydroxypyrrolidin-1-yl)methyl)pyrido[3,2-d]pyrimidin-4-yl)amino)-2′-methyl-[1,1′-biphenyl]-3-yl)-3-methoxypyrazin-2-yl)methyl)amino)cyclohexane-1-carboxylic acid] | 95.3%
14 | 0.0555 µM | O=C(O)C1CCN(Cc2ccnc(Nc3cccc(-c4cccc(Nc5nc(C(F)F)nc6cc(CN7CC[C@@H](O)C7)cnc56)c4Cl)c3Cl)c2F)CC1 [Example 36, (R)-1-((2-((2,2′-dichloro-3′-((2-(difluoromethyl)-7-((3-hydroxypyrrolidin-1-yl)methyl)pyrido[3,2-d]pyrimidin-4-yl)amino)-[1,1′-biphenyl]-3-yl)amino)-3-fluoropyridin-4-yl)methyl)piperidine-4-carboxylic acid] | 85%
15 | 0.112 µM | COc1nc(-c2cccc(-c3cccc(Nc4nc(C(F)F)nc5cc(CN6CC[C@@H](O)C6)cnc45)c3C)c2C)cnc1CN(C)[C@H]1CC[C@H](C(=O)O)CC1 [Example 27, (1r,4r)-4-(((5-(3′-((2-(difluoromethyl)-7-(((R)-3-hydroxypyrrolidin-1-yl)methyl)pyrido[3,2-d]pyrimidin-4-yl)amino)-2,2′-dimethyl-[1,1′-biphenyl]-3-yl)-3-methoxypyrazin-2-yl)methyl)(methyl)amino)cyclohexane-1-carboxylic acid] | 63%
